According to ChEMBL document CHEMBL1201861, “Genomics of Drug Sensitity in Cancer screening data, Wellcome Trust Sanger Institute”:
pIC50: −log10 of the molar value. Values joined by “and” are separate entries in the source; they are usually repeats but may differ in a detail not shown here. Identical values can stand only once. Where a SMILES comes first, the peptide text is derived from it. The star is where a group is joined. Cbz = O=C(OCc1ccccc1)*

Columns and labels:
Test in all cases: cells
8-MG-BA = format: functional, cell-based, Homo sapiens;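 also: growth inhibition of 8-MG-BA cells, read out with a cell viability assay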
Description: SANGER: Inhibition of human 8-MG-BA cell growth in a cell viability assay.

RPMI-8866 = format: functional, cell-based, Homo sapiens
Description: SANGER: Inhibition of human RPMI-8866 cell growth in a cell viability assay.

NTERA-2-cl-D1 = format: functional, cell-based, Homo sapiens;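 also: inhibition of cell growth, measured with a cell viability assay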
Description: SANGER: Inhibition of human NTERA-S-cl-D1 cell growth in a cell viability assay.

EOL1 = format: functional, cell-based, Homo sapiens;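 also: growth inhibition of EoL-1 cells, read out by a cell viability assay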
Description: SANGER: Inhibition of human EoL-1-cell cell growth in a cell viability assay.

MZ1-PC = format: functional, cell-based, Homo sapiens;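 also: cell viability assay measuring growth inhibition of human MZ1-PC cells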
Description: SANGER: Inhibition of human MZ1-PC cell growth in a cell viability assay.

BE-13 = format: functional, cell-based, Homo sapiens;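 also: growth inhibition of human BE-13 cells, measured with a cell viability assay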
Description: SANGER: Inhibition of human BE-13 cell growth in a cell viability assay.

RPMI-8226 = format: functional, cell-based, Homo sapiens
Description: SANGER: Inhibition of human RPMI-8226 cell growth in a cell viability assay.

JVM-3 = format: functional, cell-based, Homo sapiens;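 also: growth inhibition of human JVM-3 cells, read out with a cell viability assay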
Description: SANGER: Inhibition of human JVM-3 cell growth in a cell viability assay.

JAR = format: functional, cell-based, Homo sapiens;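 also: growth inhibition of human JAR cells determined with a cell viability assay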
Description: SANGER: Inhibition of human JAR cell growth in a cell viability assay.

NMC-G1 = format: functional, cell-based, Homo sapiens;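 also: growth inhibition of the NMC-G1 cell line, measured with a cell viability read-out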
Description: SANGER: Inhibition of human NMC-G1 cell growth in a cell viability assay.

NCI-H1648 = format: functional, cell-based, Homo sapiens;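 also: cell viability assay measuring inhibition of NCI-H1648 cell growth, from the Sanger screening data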
Description: SANGER: Inhibition of human NCI-H1648 cell growth in a cell viability assay.

NB69 = format: functional, cell-based, Homo sapiens;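 also: growth inhibition of NB69 cells, determined by a cell viability assay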
Description: SANGER: Inhibition of human NB69 cell growth in a cell viability assay.

HOP-62 = format: functional, cell-based, Homo sapiens;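 also: cell growth inhibition determined with a viability assay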
Description: SANGER: Inhibition of human HOP-62 cell growth in a cell viability assay.

HEL = format: functional, cell-based, Homo sapiens;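 also: growth inhibition of HEL cells, read out with a cell viability assay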
Description: SANGER: Inhibition of human HEL cell growth in a cell viability assay.

NOMO-1 = format: functional, cell-based, Homo sapiens;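 also: growth inhibition of human NOMO-1 cells measured by a cell viability assay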
Description: SANGER: Inhibition of human NOMO-1 cell growth in a cell viability assay.

KGN = format: functional, cell-based, Homo sapiens;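 also: growth inhibition of KGN cells, read out with a cell viability assay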
Description: SANGER: Inhibition of human KGN cell growth in a cell viability assay.

NCI-H1299 = format: functional, cell-based; conditions: Homo sapiens;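 also: growth inhibition of human NCI-H1299 cells, read out by a cell viability assay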
Description: SANGER: Inhibition of human NCI-H1299 cell growth in a cell viability assay.

RH-1 = format: functional, cell-based, Homo sapiens;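 also: growth inhibition of human RH-1 cells, read out with a cell viability assay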
Description: SANGER: Inhibition of human RH-1 cell growth in a cell viability assay.

LS-1034 = format: functional, cell-based, Homo sapiens
Description: SANGER: Inhibition of human LS-1034 cell growth in a cell viability assay.

SF-126 = format: functional, cell-based, Homo sapiens;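 also: growth inhibition of human SF126 cells, read out with a cell viability assay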
Description: SANGER: Inhibition of human SF126 cell growth in a cell viability assay.

D283 Med = format: functional, cell-based, Homo sapiens
Description: SANGER: Inhibition of human D-283MED cell growth in a cell viability assay.

HCE-4 = format: functional, cell-based; conditions: Homo sapiens;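 also: cell viability assay measuring inhibition of growth in the human HCE-4 cell line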
Description: SANGER: Inhibition of human HCE-4 cell growth in a cell viability assay.

CCRF-CEM = format: functional, cell-based, Homo sapiens;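 also: inhibition of CCRF-CEM cell growth, measured by a cell viability assay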
Description: SANGER: Inhibition of human CCRF-CEM cell growth in a cell viability assay.

LU-139 = format: functional, cell-based, Homo sapiens
Description: SANGER: Inhibition of human LU-139 cell growth in a cell viability assay.

ES1 = format: functional, cell-based, Homo sapiens;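 also: growth inhibition of ES1 cells, read out with a cell viability assay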
Description: SANGER: Inhibition of human ES1 cell growth in a cell viability assay.

SW 962 = format: functional, cell-based, Homo sapiens;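 also: growth inhibition of human SW962 cells, read out by a cell viability assay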
Description: SANGER: Inhibition of human SW962 cell growth in a cell viability assay.

AM-38 = format: functional, cell-based, Homo sapiens;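 also: growth inhibition of AM-38 cells of human origin, read out by a cell viability assay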
Description: SANGER: Inhibition of human AM-38 cell growth in a cell viability assay.

DSH1 = format: functional, cell-based; conditions: Homo sapiens;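 also: growth inhibition of human DSH1 cells, measured with a cell viability readout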
Description: SANGER: Inhibition of human DSH1 cell growth in a cell viability assay.

TGW = format: functional, cell-based, Homo sapiens;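 also: growth inhibition of human TGW cells, read out with a cell viability assay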
Description: SANGER: Inhibition of human TGW cell growth in a cell viability assay.

BT-474 = format: functional, cell-based, Homo sapiens
Description: SANGER: Inhibition of human BT-474 cell growth in a cell viability assay.

LB2518-MEL = format: functional, cell-based; conditions: Homo sapiens;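 also: growth inhibition of human LB2518-MEL cells, measured with a cell viability assay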
Description: SANGER: Inhibition of human LB2518-MEL cell growth in a cell viability assay.

COLO-320-HSR = format: functional, cell-based, Homo sapiens;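 also: growth inhibition of COLO-320-HSR cells, determined with a cell viability assay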
Description: SANGER: Inhibition of human COLO-320-HSR cell growth in a cell viability assay.

A3-KAW = format: functional, cell-based, Homo sapiens;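 also: growth inhibition of human A3-KAW cells, read out with a cell viability assay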
Description: SANGER: Inhibition of human A3-KAW cell growth in a cell viability assay.

NCI-H69 = format: functional, cell-based, Homo sapiens;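 also: growth inhibition of the cell line, read out with a cell viability assay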
Description: SANGER: Inhibition of human NCI-H69 cell growth in a cell viability assay.

TE-9 = format: functional, cell-based, Homo sapiens;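 also: cell growth inhibition, measured with a cell viability readout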
Description: SANGER: Inhibition of human TE-9 cell growth in a cell viability assay.

NCI-H1355 = format: functional, cell-based, Homo sapiens;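 also: growth inhibition of human NCI-H1355 cells, read out by a cell viability assay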
Description: SANGER: Inhibition of human NCI-H1355 cell growth in a cell viability assay.

SK-N-DZ = format: functional, cell-based, Homo sapiens; conditions: read-out: IC50;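 also: growth inhibition of the cancer cell line, read out through a viability assay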
Description: SANGER: Inhibition of human SK-N-DZ cell growth in a cell viability assay.

SNU-C2B = format: functional, cell-based; conditions: Homo sapiens;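 also: cell viability readout used to measure compound-driven suppression of SNU-C2B cell proliferation, IC50 marking half-maximal growth inhibition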
Description: SANGER: Inhibition of human SNU-C2B cell growth in a cell viability assay.

MV4-11 = format: functional, cell-based, Homo sapiens, MV-4-11;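 also: cell viability readout measuring growth inhibition of human MV-4-11 cells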
Description: SANGER: Inhibition of human MV-4-11 cell growth in a cell viability assay.

SHP77 = format: functional, cell-based, Homo sapiens, SHP-77;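 also: growth inhibition of human SHP-77 cells measured by a cell viability assay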
Description: SANGER: Inhibition of human SHP-77 cell growth in a cell viability assay.

SK-MEL-1 = format: functional, cell-based, Homo sapiens;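 also: growth inhibition of human SK-MEL-1 cells, read out by a cell viability assay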
Description: SANGER: Inhibition of human SK-MEL-1 cell growth in a cell viability assay.

SW982 = format: functional, cell-based; conditions: Homo sapiens;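 also: growth inhibition of SW982 cells, read out with a cell viability assay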
Description: SANGER: Inhibition of human SW982 cell growth in a cell viability assay.

NB13 = format: functional, cell-based, Homo sapiens;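 also: cell viability readout measuring growth inhibition of human NB13 cells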
Description: SANGER: Inhibition of human NB13 cell growth in a cell viability assay.

SK-LMS-1 = format: functional, cell-based, Homo sapiens;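 also: growth inhibition of human SK-LMS-1 cells, read out with a cell viability assay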
Description: SANGER: Inhibition of human SK-LMS-1 cell growth in a cell viability assay.

A388 = format: functional, cell-based; conditions: Homo sapiens;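 also: growth inhibition of human A388 cells, read out with a cell viability assay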
Description: SANGER: Inhibition of human A388 cell growth in a cell viability assay.

TE-8 = format: functional, cell-based, Homo sapiens;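 also: growth inhibition of TE-8 cells, measured with a cell viability readout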
Description: SANGER: Inhibition of human TE-8 cell growth in a cell viability assay.

NEC8 = format: functional, cell-based, Homo sapiens;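 also: growth inhibition of human NEC8 cells, read out by a cell viability assay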
Description: SANGER: Inhibition of human NEC8 cell growth in a cell viability assay.

MS-1 = format: functional, cell-based, Homo sapiens
Description: SANGER: Inhibition of human MS-1 cell growth in a cell viability assay.

OCUB-M = format: functional, cell-based; conditions: Homo sapiens;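 also: growth inhibition of the cancer cell line, read out through a cell viability assay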
Description: SANGER: Inhibition of human OCUB-M cell growth in a cell viability assay.

SK-N-FI = format: functional, cell-based, Homo sapiens;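 also: cell viability assay measuring growth inhibition of human SK-N-FI cells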
Description: SANGER: Inhibition of human SK-N-FI cell growth in a cell viability assay.

`CCCCCCCCCCCC1=C(O)C(=O)C=C(O)C1=O` [EMBELIN] showed a pIC50 (8-MG-BA; Homo sapiens, 8-MG-BA) of 5.45, a pIC50 (RPMI-8866; Homo sapiens, RPMI-8866) of 5.09 and a pIC50 (NTERA-2-cl-D1; Homo sapiens, NTERA-2-cl-D1) of 5.80. It also gave a pIC50 (EOL1; Homo sapiens, EOL1) of 5.17, a pIC50 (MZ1-PC; Homo sapiens, MZ1-PC) of 5.24 and a pIC50 (BE-13; Homo sapiens, BE-13) of 4.64. For the same compound, the pIC50 (RPMI-8226; Homo sapiens, RPMI-8226) was 4.86, the pIC50 (JVM-3; Homo sapiens, JVM-3) was under 4.49 and the pIC50 (JAR; Homo sapiens, JAR) was under 4.49. For the same compound, the pIC50 (NMC-G1; Homo sapiens, NMC-G1) was 5.16, the pIC50 (NCI-H1648; Homo sapiens, NCI-H1648) was 5.03 and the pIC50 (NB69; Homo sapiens, NB69) was under 4.49. The pIC50 (HOP-62; Homo sapiens, HOP-62) was 5.24, the pIC50 (HEL; Homo sapiens, HEL) was 4.95 and the pIC50 (NOMO-1; Homo sapiens, NOMO-1) was 4.91. It also gave a pIC50 (KGN; Homo sapiens, KGN) of 5.49, a pIC50 (NCI-H1299) of under 4.49 and a pIC50 (RH-1; Homo sapiens, RH-1) of 4.88. The pIC50 (LS-1034; Homo sapiens, LS-1034) was under 4.49, the pIC50 (SF-126; Homo sapiens, SF-126) was 4.99 and the pIC50 (D283 Med; Homo sapiens, D283 Med) was 4.83. For the same compound, the pIC50 (HCE-4) was 5.07, the pIC50 (CCRF-CEM; Homo sapiens, CCRF-CEM) was 5.52 and the pIC50 (LU-139; Homo sapiens, LU-139) was under 4.49. The pIC50 (ES1; Homo sapiens, ES1) was 5.11, the pIC50 (SW 962; Homo sapiens, SW 962) was 5.11 and the pIC50 (AM-38; Homo sapiens, AM-38) was 4.90. It also gave a pIC50 (DSH1) of under 4.49, a pIC50 (TGW; Homo sapiens, TGW) of under 4.49 and a pIC50 (BT-474; Homo sapiens, BT-474) of under 4.49. The pIC50 (LB2518-MEL) was under 4.49, the pIC50 (COLO-320-HSR; Homo sapiens, COLO-320-HSR) was 4.77 and the pIC50 (A3-KAW; Homo sapiens, A3-KAW) was 5.05. It also gave a pIC50 (NCI-H69; Homo sapiens, NCI-H69) of under 4.49, a pIC50 (TE-9; Homo sapiens, TE-9) of 5.07 and a pIC50 (NCI-H1355; Homo sapiens, NCI-H1355) of 5.00. For the same compound, the pIC50 (SK-N-DZ; Homo sapiens, SK-N-DZ) was under 4.49, the pIC50 (SNU-C2B) was under 4.49 and the pIC50 (MV4-11; Homo sapiens, MV4-11) was under 4.49. For the same compound, the pIC50 (SHP77; Homo sapiens, SHP77) was under 4.49, the pIC50 (SK-MEL-1; Homo sapiens, SK-MEL-1) was under 4.49 and the pIC50 (SW982) was 5.13. It also gave a pIC50 (NB13; Homo sapiens, NB13) of 4.78, a pIC50 (SK-LMS-1; Homo sapiens, SK-LMS-1) of 5.25 and a pIC50 (A388) of 5.17. The pIC50 (TE-8; Homo sapiens, TE-8) was 4.96, the pIC50 (NEC8; Homo sapiens, NEC8) was 5.16 and the pIC50 (MS-1; Homo sapiens, MS-1) was under 4.49. It also gave a pIC50 (OCUB-M) of 5.27 and a pIC50 (SK-N-FI; Homo sapiens, SK-N-FI) of under 4.49.
`CC(C)C[C@@H](C=O)NC(=O)[C@H](CC(C)C)NC(=O)[C@H](CC(C)C)NC(=O)OCc1ccccc1` [MG-132] (Cbz-Leu-Leu-Leu-aldehyde) was tested, and the pIC50 (8-MG-BA; 8-mg-ba) was 6.40 and < 6.00, the pIC50 (RPMI-8866; Homo sapiens, RPMI-8866) was under 6.00 and the pIC50 (RPMI-8866; rpmi-8866) was under 6.00. For the same compound, the pIC50 (NTERA-2-cl-D1; ntera-2-cl-d1) was 7.24 and 6.37, the pIC50 (EOL1; Homo sapiens, EOL1) was under 6.00 and the pIC50 (EOL1; eol1) was under 6.00. For the same compound, the pIC50 (MZ1-PC; Homo sapiens, MZ1-PC) was under 6.00, the pIC50 (MZ1-PC; mz1-pc) was under 6.00 and the pIC50 (BE-13; be-13) was < 6.00 and 6.25. For the same compound, the pIC50 (RPMI-8226; rpmi-8226) was < 6.00 and 6.37, the pIC50 (JVM-3; jvm-3) was under 6.00 and the pIC50 (JAR; jar) was under 6.00. The pIC50 (NMC-G1; nmc-g1) was under 6.00, the pIC50 (NCI-H1648; Homo sapiens, NCI-H1648) was under 6.00 and the pIC50 (NCI-H1648; nci-h1648) was under 6.00. For the same compound, the pIC50 (NB69; nb69) was under 6.00, the pIC50 (HOP-62; hop-62) was 6.96 and < 6.00 and the pIC50 (HEL; hel) was 6.73 and < 6.00. It also gave a pIC50 (NOMO-1; Homo sapiens, NOMO-1) of under 6.00, a pIC50 (NOMO-1; nomo-1) of under 6.00 and a pIC50 (KGN; Homo sapiens, KGN) of under 6.00. It also gave a pIC50 (KGN; kgn) of under 6.00, a pIC50 (NCI-H1299) of under 6.00 and a pIC50 (RH-1; rh-1) of under 6.00. The pIC50 (LS-1034; ls-1034) was under 6.00, the pIC50 (SF-126; sf-126) was 6.00 and < 6.00 and the pIC50 (D283 Med; d283 med) was under 6.00. For the same compound, the pIC50 (HCE-4) was under 6.00, the pIC50 (CCRF-CEM; ccrf-cem) was 6.32 and < 6.00 and the pIC50 (LU-139; lu-139) was under 6.00. It also gave a pIC50 (ES1; es1) of under 6.00, a pIC50 (SW 962; sw 962) of under 6.00 and a pIC50 (AM-38; am-38) of under 6.00. For the same compound, the pIC50 (TGW; tgw) was under 6.00, the pIC50 (BT-474; bt-474) was under 6.00 and the pIC50 (COLO-320-HSR; colo-320-hsr) was under 6.00. The pIC50 (A3-KAW; a3-kaw) was under 6.00, the pIC50 (NCI-H69; nci-h69) was 6.82 and < 6.00 and the pIC50 (TE-9; te-9) was 6.21 and < 6.00. The pIC50 (NCI-H1355; nci-h1355) was 6.16 and < 6.00, the pIC50 (SK-N-DZ; sk-n-dz) was under 6.00 and the pIC50 (SNU-C2B) was 6.15. For the same compound, the pIC50 (MV4-11; mv-4-11) was under 6.00, the pIC50 (SHP77; shp-77) was under 6.00 and the pIC50 (SK-MEL-1; Homo sapiens, SK-MEL-1) was under 6.00. It also gave a pIC50 (SK-MEL-1; sk-mel-1) of under 6.00, a pIC50 (SW982) of under 6.00 and a pIC50 (NB13; nb13) of under 6.00. The pIC50 (SK-LMS-1; sk-lms-1) was 6.71 and < 6.00, the pIC50 (TE-8; Homo sapiens, TE-8) was 6.46 and the pIC50 (TE-8; te-8) was 6.57. For the same compound, the pIC50 (NEC8; nec8) was 6.92 and < 6.00, the pIC50 (MS-1; Homo sapiens, MS-1) was under 6.00 and the pIC50 (MS-1; ms-1) was under 6.00. For the same compound, the pIC50 (SK-N-FI; sk-n-fi) was under 6.00.
